Laboratory results published in patent publication US20220153746A1, “NITROGEN OXIDE-DONATING PDE-5 AND/OR PDE-6 INHIBITOR COMPOUNDS, AND USES THEREOF” (ILDONG PHARMACEUTICAL CO., LTD., priority 2020, published 2022).
Where “and” joins values, the source holds several entries; their conditions need not be identical. Equal entries are not always repeated. Where two headings read alike, the source gives them in different places.

Experiment: TD Phase (Groups 1 and 3): plasma and ocular tissue concentrations and pharmacokinetics of Compound 18 and its metabolite Compound 4 after once daily ocular instillation of Compound 18 nanosuspension for 7 days
Assay type: in vivo, New Zealand white rabbits
Settings: for Compound 18 Lens Homogenate Conc.: homogenate dilution factor 5; for Cornea homogenate concentration: homogenate dilution factor 15; for concentration at 1 h: Group 1, 1 h
From the text: This example illustrates the procedures and results for the levels of Compound 18 and its metabolite Compound 4 in plasma and ocular tissues of normotensive rabbits following ocular instillation of Compound 18 once daily for 7 consecutive days.
Twenty five (25) male New Zealand white rabbits were divided into 5 groups of varying amounts of animals per group.
The Test article, Compound 18 was formulated as a 2% nanosuspension in DI water containing 0.2% PS80 (polyoxyethylenesorbitan, monooleate (Tween 80)) and 0.4% HPMC (hydroxypropylmethylcellulose) at pH 6.77. Referred to herein as “Compound 18 nanosuspension.”
The study consisted of three groups (Groups 1-3) of 19 male rabbits (NZW) that underwent once daily morning ocular installation (1 eyedrop) for 7 consecutive days (Day 0-6). Groups 4-5 each consisted of 3 male rabbits (NZW) that were not dosed.
Blood samples (1 mL) were collected from the jugular vein at the intervals set out below for each group. The samples were then inverted several times following collection and held on wet ice until centrifuged. Samples were centrifuged within 60 minutes of collection under refrigeration (set at 5° C. for 10 minutes at 2000 g.
Group 1 (Pilot Study, terminal blood collection): blood was collected from 3 animals at 1 hour post day 7 dose of Compound 18 nanosuspension.
Group 3 (TD Phase, terminal blood collection): blood was collected from 3 animals at 0.5 hour, 3 animals at 2 hours, 3 animals at 4 hours, and 3 animals at 8 hours post day 7 dose of Compound 18 nanosuspension.
(§1) Group 1 (Pilot Study): 3 animals were terminated at 1 hour post Day 7 dose of Compound 18 nanosuspension. Following blood collection and termination, ocular tissues (aqueous humor, vitreous humor, cornea, iris/ciliary body, lens, optic nerve, retina, sclera/choroid, and trabecular meshwork) were collected from each animal and the tissue weights were recorded. Note: sclera and choroid were collected together. Iris and ciliary body were collected together.
as §1, with “3 (TD Phase):” for “1 (Pilot Study):”, “0.5 hour, 3 animals at 2 hours, 3 animals at 4 hours, and 3 animals at 8 hours” for “1 hour”
Plasma and tissue samples from treated animals (Groups 1-3) were analyzed for Compound 18 and its metabolite Compound 4 concentrations by LC-MS/MS.
Pharmacokinetic analysis was conducted using WinNonlin Version 6.2.1 (Pharsight, Mountain View, Calif.), operating as a validated software system. Noncompartmental analysis was conducted using the extravascular administration model for ocular instillation dosing.
The peak plasma and ocular tissue concentration, time to achieve peak plasma and ocular tissue concentration, half-life, and area under the plasma and ocular tissue concentration-time curve (Cmax, Tmax, T1/2, and AUC) were calculated from the TD phase combined with the pilot study mean animal plasma and ocular tissue concentrations for each sampling time/dose group for Compound 18 and its metabolite Compound 4.
BA Assay: Quantitation Range 0.05 to 100 ng/mL for Compound 18, 0.15 to 100 ng/mL for Compound 4.
3. Pipet 50 μL of each type of pre-spiked ocular tissue samples (AH/VH) for QC samples, 50 μL of incurred aqueous humor, and vitreous humor sample (if applicable) into a 96 well plate.
Ocular Tissues Homogenate Preparation: Incurred rabbit ocular tissues were weighed in Genogrinder tubes (plastic tubes with small beads) at the time of removal from the animal and stored frozen (<−70° C.) until analysis. The rabbit incurred ocular tissues were thawed on wet ice. […]

[1] = TD Phase, Group 3, 4 h, Mean, BQL set to 0
[2] = TD Phase, Group 3, 4 h, individual animals
[3] = TD Phase, Group 3, 4 h, individual animals, BQL set to 0
[4] = TD Phase, Group 3, 4 h, individual animals, homogenate dilution factor 20
[5] = TD Phase, Group 3, 8 h, Mean, BQL set to 0
[6] = TD Phase, Group 3, 8 h, individual animals
[7] = TD Phase, Group 3, 8 h, individual animals, BQL set to 0
[8] = TD Phase, Group 3, 8 h, individual animals, homogenate dilution factor 20

With CCCc1nn(C)c2c(=O)[nH]c(-c3cc(S(=O)(=O)N4CC(CCCO[N+](=O)[O-])C4)ccc3OCC)nc12 [Compound 18, 3-(1-((4-ethoxy-3-(1-methyl-7-oxo-3-propyl-6,7-dihydro-1H-pyrazolo[4,3-d]pyrimidin-5-yl)phenyl)sulfonyl)azetidin-3-yl)propyl nitrate] the “Compound 18 Trahecular Meshwork Homogenate Conc.” value (TD Phase, Group 3, 2 h, individual animals, homogenate dilution factor 20) was “BQL (BQL = Below lower limit of quantitation (0.0500 ng/mL for Compound 18)”, the “Compound 18 Retina Homogenate Conc.” value (TD Phase, Group 3, 2 h, individual animals, homogenate dilution factor 20 (164 for animal 207671)) was 0.192 ng/mL and 3.47 ng/mL and 0.17 ng/mL and the “Compound 18 Aqueous Humor Conc.” value [1] was “BQL (BQL = Below lower limit of quantitation (0.0500 ng/mL for Compound 18)”. The “Compound 18 Plasma Conc.” value [1] was “BQL (BQL = Below lower limit of quantitation (0.0500 ng/mL for Compound 18)”, the “Compound 18 Vitreous Humor Conc.” value [1] was “BQL (BQL = Below lower limit of quantitation (0.0500 ng/mL for Compound 18)” and the “Compound 18 Aqueous Humor Conc.” value [2] was “BQL (BQL = Below lower limit of quantitation (0.0500 ng/mL for Compound 18)”. For the same compound, the “Compound 18 Plasma Conc.” value [2] was “BQL (BQL = Below lower limit of quantitation (0.0500 ng/mL for Compound 18)”, the “Compound 18 Vitreous Humor Conc.” value [2] was “BQL (BQL = Below lower limit of quantitation (0.0500 ng/mL for Compound 18)” and the “Final Compound 18 Optic Nerve Conc.” value [2] was 248 ng/g and 31.4 ng/g and 104 ng/g. The “Final Compound 18 Iris/Ciliary Body Conc.” value [3] was 5.78 ng/g and 0 ng/g and 8.84 ng/g, the “Final Compound 18 Lens Conc.” value [3] was 0 ng/g (2×) and 0.384 ng/g and the “Final Compound 18 Retina Conc.” value [3] was 39.6 ng/g and 6.02 ng/g and 36.2 ng/g. For the same compound, the “Compound 18 Lens Homogenate Conc.” value [2] was “BQL (BQL = Below lower limit of quantitation (0.0500 ng/mL for Compound 18)”, the Cornea homogenate concentration [2] was “BQL (BQL = Below lower limit of quantitation (0.0500 ng/mL for Compound 18)” and the “Compound 18 Iris/Ciliary Body Homogenate Conc.” value [4] was “BQL (BQL = Below lower limit of quantitation (0.0500 ng/mL for Compound 18) and 0.442 ng/mL”. The “Compound 18 Optic Nerve Homogenate Conc.” value [4] was 12.4 ng/mL and 1.57 ng/mL and 5.20 ng/mL, the “Compound 18 Retina Homogenate Conc.” value [4] was 1.98 ng/mL and 0.301 ng/mL and 1.81 ng/mL and the “Compound 18 Aqueous Humor Conc.” value [5] was “BQL (BQL = Below lower limit of quantitation (0.0500 ng/mL for Compound 18)”. The “Compound 18 Vitreous Humor Conc.” value [5] was “BQL (BQL = Below lower limit of quantitation (0.0500 ng/mL for Compound 18)”, the “Compound 18 Aqueous Humor Conc.” value [6] was “BQL (BQL = Below lower limit of quantitation (0.0500 ng/mL for Compound 18)” and the “Compound 18 Plasma Conc.” value [6] was “BQL (BQL = Below lower limit of quantitation (0.0500 ng/mL for Compound 18)”. The “Compound 18 Vitreous Humor Conc.” value [6] was “BQL (BQL = Below lower limit of quantitation (0.0500 ng/mL for Compound 18)”, the “Final Compound 18 Optic Nerve Conc.” value [6] was 26.2 ng/g and 108 ng/g and 50.6 ng/g and the “Final Compound 18 Iris/Ciliary Body Conc.” value [7] was 2.90 ng/g and 0 ng/g (2×). For the same compound, the “Final Compound 18 Lens Conc.” value [7] was 0 ng/g, the “Final Compound 18 Retina Conc.” value [7] was 8.70 ng/g and 3.64 ng/g and 9.16 ng/g and the “Compound 18 Lens Homogenate Conc.” value [6] was “BQL (BQL = Below lower limit of quantitation (0.0500 ng/mL for Compound 18)”. The Cornea homogenate concentration [6] was “BQL (BQL = Below lower limit of quantitation (0.0500 ng/mL for Compound 18)”, the “Compound 18 Iris/Ciliary Body Homogenate Conc.” value [8] was “BQL (BQL = Below lower limit of quantitation (0.0500 ng/mL for Compound 18)” and the “Compound 18 Optic Nerve Homogenate Conc.” value [8] was 1.31 ng/mL and 5.41 ng/mL and 2.53 ng/mL. The “Compound 18 Retina Homogenate Conc.” value [8] was 0.435 ng/mL and 0.182 ng/mL and 0.458 ng/mL, the “Compound 18 Trahecular Meshwork Homogenate Conc.” value [8] was “BQL (BQL = Below lower limit of quantitation (0.0500 ng/mL for Compound 18)” and the “tissue of highest concentration” value (TD phase plasma and ocular tissues) was “highest in optic nerve and sclera/choroid”. The AUC0-8 (aqueous humor, vitreous humor, plasma, and lens (relatively low exposure)) was 0.02-1.2 h*ng/mL or h*ng/g, the AUC0-8 (cornea, Day 7, from mean concentrations) was 209 ng·h/g and the AUC0-8 (iris/ciliary body, Day 7, from mean concentrations) was 150 ng·h/g. For the same compound, the AUC0-8 (lens, Day 7, from mean concentrations) was 1.19 ng·h/g, the concentration at 1 h (male, New Zealand white, rabbit, aqueous humor, other: ocular instillation (eye drop), 0.8 mg/kg/day, TD Phase, Mean, BQL set to 0, read-out: Compound 18 Aqueous Humor Conc.) was 0.063 ng/mL and the concentration at 1 h (male, New Zealand white, rabbit, aqueous humor, other: ocular instillation (eye drop), 0.8 mg/kg/day, TD Phase, individual animals, read-out: Compound 18 Aqueous Humor Conc.) was 0.189 ng/mL. For the same compound, the concentration at 4 h (male, New Zealand white, rabbit, iris/ciliary body homogenate, topical, 2 mg/day, TD Phase, Group 3, 4 h, individual animals, homogenate dilution factor 20, read-out: Compound 18 Iris/Ciliary Body Homogenate Conc.) was 0.289 ng/mL, the concentration at 8 h (male, New Zealand white, rabbit, iris/ciliary body homogenate, topical, 2 mg/day, TD Phase, Group 3, 8 h, individual animals, homogenate dilution factor 20, read-out: Compound 18 Iris/Ciliary Body Homogenate Conc.) was 0.145 ng/mL and the concentration at 1 h (male, New Zealand white, rabbit, iris/ciliary body, topical, 0.798 mg/kg/day, TD Phase, Mean, read-out: Final Compound 18 Iris/Ciliary Body Conc.) was 107 ng/g. The concentration at 0.5 h (male, New Zealand white, rabbit, iris/ciliary body, topical, 0.798 mg/kg/day, TD Phase, Group 3, 0.5 h, Mean, read-out: Final Compound 18 Iris/Ciliary Body Conc.) was 90.1 ng/g.
